# Measured values reported in PubChem BioAssay AID2060898 (Molecular Pharmacology Branch, DTP, NCI, 2025).
# Tested on: 616215-338-R-J1-PDC complex spheroid viability
# Test: Anticancer human tumor 616215-338-R-J1-PDC patient-derived colon adenocarcinoma cell line growth inhibition [RAS]
# Conditions: for IC50: curve of first compound; for viability, T/C: stronger effect = lower value
# Procedure, shortened: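 Agents were tested in combination matrices in half-log decrements from a top concentration at or near clinical Cmax (10 microM if undetermined). Targets were multi-cell spheroids of tumour lines plus HUVEC and MSC stromal cells.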
# [1] = second compound 0.000949 µM, first compound 0.0316 µM
# [2] = second compound 0.000949 µM, first compound 0.1 µM
# [3] = second compound 0.000949 µM, first compound 0.316 µM
# [4] = second compound 0.000949 µM, first compound 1 µM
# [5] = second compound 0.000949 µM, first compound 3.16 µM
# [6] = second compound 0.000949 µM, first compound 10 µM
# [7] = second compound 0.003 µM, first compound 0.0316 µM
# [8] = second compound 0.003 µM, first compound 0.1 µM
# [9] = second compound 0.003 µM, first compound 0.316 µM
# [10] = second compound 0.003 µM, first compound 1 µM
# [11] = second compound 0.003 µM, first compound 3.16 µM
# [12] = second compound 0.003 µM, first compound 10 µM
# [13] = second compound 0.00949 µM, first compound 0.0316 µM
# [14] = second compound 0.00949 µM, first compound 0.1 µM
# [15] = second compound 0.00949 µM, first compound 0.316 µM
# [16] = second compound 0.00949 µM, first compound 1 µM
# [17] = second compound 0.00949 µM, first compound 3.16 µM
# [18] = second compound 0.00949 µM, first compound 10 µM
# [19] = second compound 0.03 µM, first compound 0.0316 µM
# [20] = second compound 0.03 µM, first compound 0.1 µM
# [21] = second compound 0.03 µM, first compound 0.316 µM
# [22] = second compound 0.03 µM, first compound 1 µM
# [23] = second compound 0.03 µM, first compound 3.16 µM
# [24] = second compound 0.03 µM, first compound 10 µM
# [25] = second compound 0.0949 µM, first compound 0.0316 µM
# [26] = second compound 0.0949 µM, first compound 0.1 µM
# [27] = second compound 0.0949 µM, first compound 0.316 µM
# [28] = second compound 0.0949 µM, first compound 1 µM
# [29] = second compound 0.0949 µM, first compound 3.16 µM
# [30] = second compound 0.0949 µM, first compound 10 µM
# [31] = second compound 0.3 µM, first compound 0.0316 µM
# [32] = second compound 0.3 µM, first compound 0.1 µM
# [33] = second compound 0.3 µM, first compound 0.316 µM
# [34] = second compound 0.3 µM, first compound 1 µM
# [35] = second compound 0.3 µM, first compound 3.16 µM
# [36] = second compound 0.3 µM, first compound 10 µM
# 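Also: spheroids exposed to agents for seven days before viability readout.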
# 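For viability, T/C in this document: 100% = DMSO vehicle control viability.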
structure (smiles),measurement,setting,value
CC(C)NCC(C(=O)N1CCN(c2ncnc3c2C(C)CC3O)CC1)c1ccc(Cl)cc1 (stereo not drawn) + CCn1c(-c2cc(N3CCN(C)CC3)cnc2C(C)OC)c2c3cc(ccc31)-c1csc(n1)CC(NC(=O)C1CC1C)C(=O)N1CCCC(N1)C(=O)OCC(C)(C)C2,IC50,second compound 0.000949 µM,7.56 µM
same,IC50,second compound 0.003 µM,5.48 µM
same,IC50,second compound 0.00949 µM,2.38 µM
same,IC50,second compound 0.03 µM,< 0.0316 µM
same,IC50,second compound 0.0949 µM,< 0.0316 µM
same,IC50,second compound 0.3 µM,< 0.0316 µM
same,"viability, T/C",[1],109%
same,"viability, T/C",[2],106%
same,"viability, T/C",[3],102%
same,"viability, T/C",[4],106%
same,"viability, T/C",[5],78.2%
same,"viability, T/C",[6],41%
same,"viability, T/C",[7],113%
same,"viability, T/C",[8],107%
same,"viability, T/C",[9],103%
same,"viability, T/C",[10],105%
same,"viability, T/C",[11],67.5%
same,"viability, T/C",[12],30.9%
same,"viability, T/C",[13],96.1%
same,"viability, T/C",[14],85.1%
same,"viability, T/C",[15],81.7%
same,"viability, T/C",[16],82.1%
same,"viability, T/C",[17],39.6%
same,"viability, T/C",[18],21.6%
same,"viability, T/C",[19],50.8%
same,"viability, T/C",[20],40%
same,"viability, T/C",[21],36.5%
same,"viability, T/C",[22],47.7%
same,"viability, T/C",[23],26.1%
same,"viability, T/C",[24],14.5%
same,"viability, T/C",[25],43.7%
same,"viability, T/C",[26],34.9%
same,"viability, T/C",[27],33.3%
same,"viability, T/C",[28],25.9%
same,"viability, T/C",[29],22%
same,"viability, T/C",[30],11.1%
same,"viability, T/C",[31],52%
same,"viability, T/C",[32],29.9%
same,"viability, T/C",[33],32.8%
same,"viability, T/C",[34],26.6%
same,"viability, T/C",[35],19.4%
same,"viability, T/C",[36],11.1%
CC(C)n1nc(-c2ccc3oc(N)nc3c2)c2c(N)ncnc21 + CCn1c(-c2cc(N3CCN(C)CC3)cnc2C(C)OC)c2c3cc(ccc31)-c1csc(n1)CC(NC(=O)C1CC1C)C(=O)N1CCCC(N1)C(=O)OCC(C)(C)C2,IC50,second compound 0.000949 µM,> 0.1 µM
same,IC50,second compound 0.003 µM,0.0771 µM
same,IC50,second compound 0.00949 µM,0.0428 µM
same,IC50,second compound 0.03 µM,< 0.000316 µM
same,IC50,second compound 0.0949 µM,< 0.000316 µM
same,IC50,second compound 0.3 µM,< 0.000316 µM
same,"viability, T/C","second compound 0.000949 µM, first compound 0.000316 µM",103%
same,"viability, T/C","second compound 0.000949 µM, first compound 0.001 µM",93.7%
same,"viability, T/C","second compound 0.000949 µM, first compound 0.00316 µM",110%
same,"viability, T/C","second compound 0.000949 µM, first compound 0.01 µM",116%
same,"viability, T/C",[1],118%
same,"viability, T/C",[2],63.8%
same,"viability, T/C","second compound 0.003 µM, first compound 0.000316 µM",114%
same,"viability, T/C","second compound 0.003 µM, first compound 0.001 µM",108%
same,"viability, T/C","second compound 0.003 µM, first compound 0.00316 µM",108%
same,"viability, T/C","second compound 0.003 µM, first compound 0.01 µM",103%
same,"viability, T/C",[7],86.2%
same,"viability, T/C",[8],39.2%
same,"viability, T/C","second compound 0.00949 µM, first compound 0.000316 µM",77.2%
same,"viability, T/C","second compound 0.00949 µM, first compound 0.001 µM",71.4%
same,"viability, T/C","second compound 0.00949 µM, first compound 0.00316 µM",64.5%
same,"viability, T/C","second compound 0.00949 µM, first compound 0.01 µM",78.8%
same,"viability, T/C",[13],54.8%
same,"viability, T/C",[14],36.4%
same,"viability, T/C","second compound 0.03 µM, first compound 0.000316 µM",41%
same,"viability, T/C","second compound 0.03 µM, first compound 0.001 µM",51.2%
same,"viability, T/C","second compound 0.03 µM, first compound 0.00316 µM",39.5%
same,"viability, T/C","second compound 0.03 µM, first compound 0.01 µM",37.3%
same,"viability, T/C",[19],39%
same,"viability, T/C",[20],25%
same,"viability, T/C","second compound 0.0949 µM, first compound 0.000316 µM",41%
same,"viability, T/C","second compound 0.0949 µM, first compound 0.001 µM",39.3%
same,"viability, T/C","second compound 0.0949 µM, first compound 0.00316 µM",31.8%
same,"viability, T/C","second compound 0.0949 µM, first compound 0.01 µM",30.9%
same,"viability, T/C",[25],30.9%
same,"viability, T/C",[26],21.3%
same,"viability, T/C","second compound 0.3 µM, first compound 0.000316 µM",35.9%
same,"viability, T/C","second compound 0.3 µM, first compound 0.001 µM",31.1%
same,"viability, T/C","second compound 0.3 µM, first compound 0.00316 µM",35.9%
same,"viability, T/C","second compound 0.3 µM, first compound 0.01 µM",30.1%
same,"viability, T/C",[31],27.8%
same,"viability, T/C",[32],22.8%
CC(Nc1ccc2c(c1)OCCn1cc(N3C(=O)OCC3C(F)F)nc1-2)C(N)=O (stereo not drawn) + CCn1c(-c2cc(N3CCN(C)CC3)cnc2C(C)OC)c2c3cc(ccc31)-c1csc(n1)CC(NC(=O)C1CC1C)C(=O)N1CCCC(N1)C(=O)OCC(C)(C)C2,IC50,second compound 0.000949 µM,> 10 µM
same,IC50,second compound 0.003 µM,> 10 µM
same,IC50,second compound 0.00949 µM,0.281 µM
same,IC50,second compound 0.03 µM,< 0.0316 µM
same,IC50,second compound 0.0949 µM,< 0.0316 µM
same,IC50,second compound 0.3 µM,< 0.0316 µM
same,"viability, T/C",[1],114%
same,"viability, T/C",[2],106%
same,"viability, T/C",[3],103%
same,"viability, T/C",[4],117%
same,"viability, T/C",[5],94.6%
same,"viability, T/C",[6],74.5%
same,"viability, T/C",[7],109%
same,"viability, T/C",[8],99.5%
same,"viability, T/C",[9],85.5%
same,"viability, T/C",[10],83.2%
same,"viability, T/C",[11],91.4%
same,"viability, T/C",[12],69%
same,"viability, T/C",[13],90.9%
same,"viability, T/C",[14],63.5%
same,"viability, T/C",[15],48.4%
same,"viability, T/C",[16],48.9%
same,"viability, T/C",[17],47.7%
same,"viability, T/C",[18],48%
same,"viability, T/C",[19],37.4%
same,"viability, T/C",[20],41.2%
same,"viability, T/C",[21],28.6%
same,"viability, T/C",[22],37.1%
same,"viability, T/C",[23],38.1%
same,"viability, T/C",[24],28.2%
same,"viability, T/C",[25],33.3%
same,"viability, T/C",[26],31.9%
same,"viability, T/C",[27],28.7%
same,"viability, T/C",[28],25.9%
same,"viability, T/C",[29],23.2%
same,"viability, T/C",[30],25.3%
same,"viability, T/C",[31],37.8%
same,"viability, T/C",[32],40.5%
same,"viability, T/C",[33],27.5%
same,"viability, T/C",[34],29.3%
same,"viability, T/C",[35],25.3%
same,"viability, T/C",[36],23.5%
C[C@@H](NC(=O)c1ncnc(N)c1Cl)c1ncc(C(=O)Nc2cc(C(F)(F)F)c(Cl)cn2)s1 + CCn1c(-c2cc(N3CCN(C)CC3)cnc2C(C)OC)c2c3cc(ccc31)-c1csc(n1)CC(NC(=O)C1CC1C)C(=O)N1CCCC(N1)C(=O)OCC(C)(C)C2,IC50,second compound 0.000949 µM,8.75 µM
same,IC50,second compound 0.003 µM,6.94 µM
same,IC50,second compound 0.00949 µM,1.57 µM
same,IC50,second compound 0.03 µM,0.243 µM
same,IC50,second compound 0.0949 µM,< 0.0316 µM
same,IC50,second compound 0.3 µM,< 0.0316 µM
same,"viability, T/C",[1],102%
same,"viability, T/C",[2],104%
same,"viability, T/C",[3],117%
same,"viability, T/C",[4],105%
same,"viability, T/C",[5],96.3%
same,"viability, T/C",[6],43.9%
same,"viability, T/C",[7],114%
same,"viability, T/C",[8],129%
same,"viability, T/C",[9],102%
same,"viability, T/C",[10],87.2%
same,"viability, T/C",[11],66.2%
same,"viability, T/C",[12],42.6%
same,"viability, T/C",[13],95.3%
same,"viability, T/C",[14],78%
same,"viability, T/C",[15],72.5%
same,"viability, T/C",[16],61%
same,"viability, T/C",[17],35.8%
same,"viability, T/C",[18],21.4%
same,"viability, T/C",[19],58.9%
same,"viability, T/C",[20],62.2%
same,"viability, T/C",[21],42.3%
same,"viability, T/C",[22],41.1%
same,"viability, T/C",[23],30%
same,"viability, T/C",[24],25.1%
same,"viability, T/C",[25],41.9%
same,"viability, T/C",[26],57.1%
same,"viability, T/C",[27],38.5%
same,"viability, T/C",[28],33.2%
same,"viability, T/C",[29],23.2%
same,"viability, T/C",[30],16.6%
same,"viability, T/C",[31],36.3%
same,"viability, T/C",[32],35.6%
same,"viability, T/C",[33],39%
same,"viability, T/C",[34],33.7%
same,"viability, T/C",[35],22.6%
same,"viability, T/C",[36],13.2%
